According to patent US7718641B2, “Pyrrolo [3,4-H] isoquinoline compounds and methods for modulating gated ion channels” (Aros Pharma ApS, priority 2005, dated 2010):

How the values were obtained:
formalin-induced pain = experiment: Formalin test, model of acute tonic pain; type: in vivo, rat
Protocol: Male Sprague-Dawley rats are housed together in groups of three animals under standard conditions with unrestricted access to food and water. All experiments are conducted according to the ethical guidelines for investigations of experimental pain in conscious animals (Zimmerman, 1983)
Assessment of formalin-induced flinching behavior in normal, uninjured rats (body weight 150-180 g) was made with the use of an Automated Nociception Analyser (University of California, San Diego, USA). Briefly, this involved placing a small C-shaped metal band (10 mm wide×27 mm long) on the hindpaw of the rat to be tested. The rats (four rats were included in each testing session) were then placed in a cylindrical plexiglass observation chamber (diameter 30.5 cm and height 15 cm) for 20 min for adaptation purposes prior to being administered drug or vehicle according to the experimental paradigm being followed. After adaptation, individual rats were then gently restrained and formalin (5% in saline, 50 μl, s.c.) was injected into the plantar surface of the hindpaw using a 27G needle. Rats were then returned to their separate observation chambers, each of which were in turn situated upon an enclosed detection device consisting of two electromagnetic coils designed to produce an electromagnetic field in which movement of the metal band could be detected. The analogue signal was then digitised and a software algorithm (LabView) applied to enable discrimination of flinching behaviour from other paw movements. A sampling interval of 1 min was used and on the basis of the resulting response patterns 5 phases of nociceptive behaviour were identified and scored: first phase (P1; 0-5 min), interphase (Int; 6-15 min), second phase (P2; […]), phase 2A (P2A; 16-40 min) and phase 2B (P2B; 41-60 min).
Nociceptive behavior was also determined manually every 5 min by measuring the amount of time spent in each of four behavioral categories: 0, treatment of the injected hindpaw is indistinguishable from that of the contralateral paw; 1, the injected paw has little or no weight placed on it; 2, the injected paw is elevated and is not in contact with any surface; 3, the injected paw is licked, bitten, or shaken. A weighted nociceptive score, ranging from 0 to 3 was calculated by multiplying the time spent in each category by the category weight, summing these products, and dividing by the total time for each 5 min block of time. (Coderre et al., Pain 1993; 54: 43). On the basis of the resulting response patterns, […] of nociceptive behavior were identified and scored: first phase (P1; 0-5 min), interphase (Int; 6-15 min), second phase (P2; […]), phase 2A (P2A; 16-40 min) and phase 2B (P2B; 41-60 min). […]

[1] = test system: rat dorsal root ganglion neurons; experiment: Patch clamp (current clamp) of acid-induced action potential generation in rat dorsal root ganglion neurons in primary culture; type: cell-based; conditions: 1 μM, current-clamp mode, n=3
Protocol: The acid-evoked action potentials were recorded in the presence and absence of Compound A (1 μM) or Compound H (1 μM) using the whole cell configuration of the patch clamp method (current clamp mode).
Sensory neurons can be isolated and cultured in vitro from different animal species. The most widely used protocols use sensory neurons isolated from neonatal (Eckert, et al. (1997) J Neurosci Methods 77:183-190) and embryonic (Vasko, et al. (1994) J Neurosci 14:4987-4997) rat. […] Electrophysiology is performed similarly as described above in Example 2. […] In the current-clamp mode, change in the trans-membrane potential are recorded. Under acidic conditions (e.g., pH 6.5) the membrane depolarizes, leading to the firing of action potentials, as shown in FIGS. 7A and 7B.

[2] = test system: CFA-induced inflammatory pain; experiment: CFA model of chronic inflammatory pain, hindpaw weight bearing (Incapacitance Tester); type: in vivo, rat; conditions: 24 h after CFA, 60 min after drug injection, n=7-8
Protocol: Rats (body weight 260-300 g) were given a s.c. injection of CFA (50% in saline, 100 μl, Sigma) into the plantar surface of the hindpaw under brief halothane anaesthesia. After 24 h, they were then tested for hindpaw weight bearing responses, as assessed using an Incapacitance Tester (Linton Instrumentation, UK), (Zhu et al., 2005). The instrument incorporates a dual channel scale that separately measures the weight of the animal distributed to each hindpaw. While normal rats distribute their body weight equally between the two hindpaws (50-50), the discrepancy of weight distribution between an injured and non-injured paw is a natural reflection of the discomfort level in the injured paw (nocifensive behavior). The rats were placed in the plastic chamber designed so that each hindpaw rested on a separate transducer pad. […] For each rat, three readings from each paw were taken and then averaged. Side-to-side weight bearing difference was calculated as the average of the absolute value of the difference between two hindpaws from three trials (right paw reading-left paw reading).
Hindpaw weight bearing responses were measured in male Sprague-Dawley rats for 2-3 days prior to being given a hindpaw injection of CFA. Twenty-four hours later baseline responses were measured and rats were then administered Compound A (5, 10 and 20 mg/kg, i.p.), Compound H (10, 30 and 60 mg/kg) and morphine (3, 6 and 10 mg/kg). Weight bearing responses were then measured at 30, 60 and 120 min after drug or vehicle injection (data shown at 60 min.). […] Data are expressed as mean +/−SEM. *P<0.05, **P<0.01, *** P<0.001 vs baseline; +++: P<0.001 vs vehicle. All groups n=7-8.

| Structure (SMILES) | pain intensity as evaluated by the flinching behavior (formalin-induced pain; Automated Nociception Analyser, n=6-8) | effect on acid-induced membrane depolarization and action potential firing [1] | CFA-induced change in hindpaw weight bearing compared with vehicle [2] | ED50 (formalin-induced pain; Rattus norvegicus, ip, i.p. 30 min before formalin, phase 2 (phase IIa), rat, read-out: ED50, total pain score in the formalin test) | total pain score behavior (flinching, licking, biting) (formalin-induced pain; i.p. 30 min before formalin, phase 1 and 2, n=6-8) |
| --- | --- | --- | --- | --- | --- |
| CCN1CCc2c(-c3ccccc3)cc3c(c2C1)NC(=O)/C3=N/O [Compound H, 5-phenyl-6,7,8,9-tetrahydro-3-(hydroxyimino)-8-ethyl-1H-pyrrolo[3,2-h]isoquinoline-2(3H)-one] | dose-dependent reduction of the pain intensity | inhibit the acid-induced membrane depolarization and reduces the ensuing rate of action potential firing | marked dose-dependent attenuation in the CFA-induced change in weight bearing |  |  |
| COc1ccc(F)cc1-c1cc2c(c3c1CCN(C)C3)NC(=O)/C2=N/O [Compound A, 5-(5-fluoro-2-methoxyphenyl)-6,7,8,9-tetrahydro-3-(hydroxyimino)-8-methyl-1H-pyrrolo[3,2-h]isoquinoline-2(3H)-one] |  | inhibit the acid-induced membrane depolarization and reduces the ensuing rate of action potential firing | marked dose-dependent attenuation in the CFA-induced change in weight bearing | ~12 mg/kg | reduce the total pain score behavior |
